Values of other authors, collected in patent US11331266B1, “Antioxidant free, norepinephrine bitartrate injection in amber glass vials” (Medefil, Inc., priority 2020, dated 2022).

Details: literature, Int. J. Toxicol. 2002; 21 Suppl 2:19-94

Structure (SMILES): COc1ccc(O)c(C(C)(C)C)c1 [butylated hydroxyl anisole]
- organ damage: some renal and hepatic damage
